Experimental data taken from paper PMC8815882, “Screening the pandemic response box identified benzimidazole carbamates, Olorofim and ravuconazole as promising drug candidates for the treatment of eumycetoma” (PLoS Neglected Tropical Diseases, 2022).
Values joined by “and” are separate entries in the source; they are usually repeats but may differ in a detail not shown here. Equal values may be shown once. Read-outs that look alike come from different tables or passages of the source.

System: M. mycetomatis genome strain MM55
Assay: CLSI M38-A2 based in vitro susceptibility screening (XTT or resazurin), growth at fixed concentration
Assay type: cell-based, Madurella mycetomatis
Details: for activity at 25 µM / activity at 100 µM / Percent fungal survival at 100 µM: Madurella mycetomatis; for Percent fungal survival at 100 µM: read-out: Percentage survival at 100um, 100 uM A (second replicate column)
[1] = 25 uM, mean of three, M. mycetomatis MM55, read-out: Percentage survival at 25um, 25 uM mean
[2] = 25 uM, replicate A, M. mycetomatis MM55, read-out: Percentage survival at 25um, 25 um A
[3] = 25 uM, replicate B, M. mycetomatis MM55, read-out: Percentage survival at 25um, 25 uM B
[4] = 25 uM, replicate C, M. mycetomatis MM55, read-out: Percentage survival at 25um, 25 uM C
[5] = 100 uM, mean of three, M. mycetomatis MM55, read-out: Percentage survival at 100um, 100 uM mean
[6] = 100 uM, replicate 1, M. mycetomatis MM55, read-out: Percentage survival at 100um, 100 uM A (first replicate column)
[7] = 100 uM, replicate 2, M. mycetomatis MM55
[8] = 100 uM, replicate 3, M. mycetomatis MM55, read-out: Percentage survival at 100um, 100 uM A (third replicate column)
[9] = 25 uM, mean of three replicates, read-out: Percentage survival at 25um, 25 uM mean
[10] = 25 uM, replicate A, read-out: Percentage survival at 25um, 25 um A
[11] = 25 uM, replicate B, read-out: Percentage survival at 25um, 25 uM B
[12] = 25 uM, replicate C, read-out: Percentage survival at 25um, 25 uM C
[13] = 100 uM, mean of three replicates, read-out: Percentage survival at 100um, 100 uM mean
[14] = 100 uM, replicate 1, read-out: Percentage survival at 100um, 100 uM A (first replicate column)
[15] = 100 uM, replicate 3, read-out: Percentage survival at 100um, 100 uM A (third replicate column)
[16] = 25 uM, mean of replicates, read-out: Percentage survival at 25um, 25 uM mean
[17] = 100 uM, mean of replicates, read-out: Percentage survival at 100um, 100 uM mean
[18] = 100 uM, first replicate column, read-out: Percentage survival at 100um, 100 uM A
[19] = 100 uM, second replicate column, read-out: Percentage survival at 100um, 100 uM A
[20] = 100 uM, third replicate column, read-out: Percentage survival at 100um, 100 uM A

OCCCCn1cnc2c(O)nc(NCc3ccc(Cl)c(Cl)c3)nc21 [MMV1593542]
activity at 25 µM [1]: 73.1%
activity at 25 µM [2]: 73.4%
activity at 25 µM [3]: 73.3%
activity at 25 µM [4]: 72.6%
activity at 100 µM [5]: 74.4%
activity at 100 µM [6]: 82.6%
Percent fungal survival at 100 µM [7]: 70.6%
activity at 100 µM [8]: 70.1%

COc1cc(C(C(=O)NC2CCCCC2)N(C(=O)Cc2c[nH]c3ccccc23)c2ccc(C(C)C)cc2)cc(OC)c1OC (stereo not drawn) [MMV1593544]
activity at 25 µM (25 uM, mean of replicates, MM55, read-out: Percentage survival at 25um, 25 uM mean): 98.2%
activity at 25 µM (25 uM, replicate A, MM55, read-out: Percentage survival at 25um, 25 um A): 107%
activity at 25 µM (25 uM, replicate B, MM55, read-out: Percentage survival at 25um, 25 uM B): 106%
activity at 25 µM (25 uM, replicate C, MM55, read-out: Percentage survival at 25um, 25 uM C): 81.3%
activity at 100 µM (100 uM, mean of replicates, MM55, read-out: Percentage survival at 100um, 100 uM mean): 88.5%
activity at 100 µM (100 uM, replicate 1, MM55, read-out: Percentage survival at 100um, 100 uM A): 98%
activity at 100 µM (100 uM, replicate 2, MM55, read-out: Percentage survival at 100um, 100 uM A): 88.7%
activity at 100 µM (100 uM, replicate 3, MM55, read-out: Percentage survival at 100um, 100 uM A): 78.7%

CC1(C)C[C@H]1C(=O)N/C(=C\CCCCSC[C@@H](N)C(=O)O)C(=O)O [MMV1613559]
Percentage survival at 100um, 100 uM A: 93.1771% and 127.204% and 75.2981%
activity at 25 µM (read-out: Percentage survival at 25um, 25 uM B): 95.4%
activity at 25 µM (read-out: Percentage survival at 25um, 25 uM C): 77.8%
activity at 25 µM (read-out: Percentage survival at 25um, 25 uM mean): 92.2%
activity at 25 µM (read-out: Percentage survival at 25um, 25 um A): 103%
activity at 100 µM (read-out: Percentage survival at 100um, 100 uM mean): 98.6%

NC(=O)[C@@H]1CC[C@@H]2CN1C(=O)N2OS(=O)(=O)O [MMV1613560]
activity at 25 µM [1]: 88.8%
activity at 25 µM [2]: 94.4%
activity at 25 µM [3]: 88.3%
activity at 25 µM [4]: 83.7%
activity at 100 µM [5]: 85.1%
activity at 100 µM [6]: 93.4%
Percent fungal survival at 100 µM [7]: 67.9%
activity at 100 µM [8]: 94.1%

Cc1ncc([N+](=O)[O-])n1CC(O)CN1CCOCC1 (stereo not drawn) [MMV1613562]
activity at 25 µM [9]: 110%
activity at 25 µM [10]: 99.4%
activity at 25 µM [11]: 137%
activity at 25 µM [12]: 94%
activity at 100 µM [13]: 94.6%
activity at 100 µM [14]: 93.7%
Percent fungal survival at 100 µM (100 uM, replicate 2): 86.5%
activity at 100 µM [15]: 104%

COc1cc(Cc2cnc(N)nc2N)c2c(c1OC)OC(C1CC1)C=C2 (stereo not drawn) [MMV1613563]
activity at 25 µM [16]: 99.9%
activity at 25 µM [10]: 106%
activity at 25 µM [11]: 107%
activity at 25 µM [12]: 86.9%
activity at 100 µM [17]: 91.5%
activity at 100 µM [14]: 93.6%
Percent fungal survival at 100 µM (100 uM, replicate 2): 93.2%
activity at 100 µM [15]: 87.7%

C=C[C@]1(C)C[C@@H](OC(=O)CS[C@@H]2C[C@H]3CC[C@@H](C2)N3C)[C@]2(C)[C@H](C)CC[C@]3(CCC(=O)[C@H]32)[C@@H](C)[C@@H]1O [MMV1633674]
activity at 25 µM [16]: 89.3%
activity at 25 µM [10]: 84.6%
activity at 25 µM [11]: 97.9%
activity at 25 µM [12]: 85.5%
activity at 100 µM [17]: 48.4%
activity at 100 µM (100 uM, replicate 1, read-out: Percentage survival at 100um, 100 uM A): -3.26%
activity at 100 µM (100 uM, replicate 2, read-out: Percentage survival at 100um, 100 uM A): 61.3%
activity at 100 µM (100 uM, replicate 3, read-out: Percentage survival at 100um, 100 uM A): 87%

CC(C)c1cc2c(cc1S(=O)(=O)O)[C@@]1(C)CCC[C@@](C)(C(=O)O)[C@@H]1CC2 [MMV1633675]
activity at 25 µM [9]: 79.3%
activity at 25 µM [10]: 73.4%
activity at 25 µM [11]: 82.6%
activity at 25 µM [12]: 81.8%
activity at 100 µM [13]: 82.2%
activity at 100 µM [14]: 91.1%
Percent fungal survival at 100 µM (100 uM, replicate 2): 74%
activity at 100 µM [15]: 81.5%

Nc1nc2c(ncn2[C@@H]2O[C@H](CO)[C@@H](O)[C@H]2F)c(=O)[nH]1 [MMV1633677]
activity at 25 µM [9]: 85.2%
activity at 25 µM [10]: 76.3%
activity at 25 µM [11]: 91.2%
activity at 25 µM [12]: 88.1%
activity at 100 µM [18]: 85.8%
activity at 100 µM [13]: 83.6%
activity at 100 µM [19]: 80.2%
activity at 100 µM [20]: 84.7%

CC[C@@]1(O)C(=O)OCc2c1cc1n(c2=O)Cc2cc3c(CN(C)C)c(O)ccc3nc2-1 [MMV1633678]
activity at 25 µM [9]: 101%
activity at 25 µM [10]: 86.9%
activity at 25 µM [11]: 110%
activity at 25 µM [12]: 108%
activity at 100 µM [18]: 94.8%
activity at 100 µM [13]: 89.5%
activity at 100 µM [19]: 86.7%
activity at 100 µM [20]: 86.9%
